Data from US20040176471A1, “Novel chalcone derivatives and pharmaceutical compositions comprising the same” (KAOHSIUNG MEDICAL UNIVERSITY, priority 2003, published 2004).
Where two headings read alike, the source gives them in different places.

Legend:
[1] = system: rat neutrophils; settings: rat neutrophils stimulated with fMLP; concentration of 3 mg/mL; cited from earlier work
[2] = system: N9 cells; assay: NO production (nitrite accumulation, Griess reaction) in LPS/IFN-γ-stimulated microglial cells; type: cell-based, murine; settings: for IC50: LPS (10 ng/mL)/IFN-γ (10 unit/mL), 24 hrs, read-out: IC50, accumulation of NO2− in culture media, N9 cells; for % of inhibition of NO2− accumulation at the highest concentration, N9 cells: LPS/IFN-γ, at the highest concentration (bound given in the source)
Procedure: Cells of murine microglial cell line N9 (kindly provided by Dr. P. Ricciardi-Castagnoli, CNR Cellular and Molecular Pharmacology Center, Italy) (S. B. Corradin et al. (1993), Glia, 7, 255-262) were suspended in Iscove's Modified Dulbecco's medium containing 5% heat-inactivated FCS and antibiotics and then plated into 96-well tissue-culture plates at 8×10^4 cells/200 μL per well. The cells were treated with DMSO or a tested compound at 37° C. for 1 hr, followed by stimulation with LPS (10 ng/mL)/IFN-γ (10 unit/mL) for 24 hrs. Thereafter, the medium in each well was collected and stored at −70° C. until use. The final volume of DMSO in the reaction mixture was<0.5%
(§1) The production of NO in cell medium was determined by measuring the content of nitrite based on the Griess reaction (L. Mingghetti et at (1997), Glia, 19, 152-160). Briefly, 40 μL of 5 mM sulfanilamide, 10 μL of 2 M HCl, and 20 μL of 40 mM naphthylethylenediamine were added into 150 μL culture medium in sequence. After 10 min of incubation at room temperature, absorbance was measured at 550 nm in a microplate reader. A standard nitrite curve was generated in the same fashion, using NaNO2.

[3] = system: rat neutrophils; assay: Neutrophil degranulation stimulated with fMLP/CB (release of β-glucuronidase and lysozyme); type: cell-based; settings: for IC50: Neutrophil, fMLP (1 μM)/CB (5 μg/mL); for IC50 / % of inhibition of Lysozyme release at the highest concentration / % of inhibition of β-Glucuronidase release at the highest concentration: rat neutrophils; for % of inhibition of Lysozyme release at the highest concentration / % of inhibition of β-Glucuronidase release at the highest concentration: at the highest concentration (bound given in the source)
Procedure: Blood was withdrawn from rat (Sprague-Dawley, 250-300 g, 10-12 weeks old) and mixed with EDTA. […] Cell suspension was preincubated at 37° C. with DMSO or drugs for 10 min, and then challenged with fMLP (1 μM)/CB (5 μg/mL). The final volume of DMSO in the reaction mixture was≦0.5%. […] After treatment of the cell suspension with Triton X-100, the total content of lysozyme and β-glucuronidase was measured and the percentage release was calculated. In the experiment, Trifluoperazine was used as a positive control.

[4] = system: rat neutrophils; assay: Superoxide anion generation in neutrophils stimulated with fMLP/CB or PMA (cytochrome c reduction); type: cell-based; settings: for inhibition / IC50: Neutrophil; for inhibition / IC50 / % of inhibition of superoxide anion generation at the highest concentration, fMLP/CB: rat neutrophils; for inhibition / % of inhibition of superoxide anion generation at the highest concentration, fMLP/CB: at the highest concentration (bound given in the source)
Procedure: Superoxide anion generation was measured in terms of superoxide dismutase-inhibitable cytochrome c reduction (M. Market et al. (1984), Methods Enzymol., 105, 358). Neutrophil suspension was preincubated with DMSO or a tested compound for 3 min, and then superoxide dismutase or Hank's balanced salt solution (HBSS) was added into the blank and test wells, respectively. The final volume of DMSO in the reaction mixture was≦0.5%. After addition of cytochrome c, reaction was initiated by challenge with formyl-Met-Leu-Phe (fMLP) (0.3 μM)/cytochalasin B (CB) (5 μg/mL) or phorbol myristate acetate (PMA) (3 nM). Thirty minutes later, the reaction was terminated by centrifugation and the absorbance changes of supernatant were monitored at 550 nm in a microplate reader. In the experiment, Trifluoperazine was used as a positive control

[5] = system: RAW 264.7 cells; assay: NO production (nitrite accumulation, Griess reaction) in LPS-stimulated macrophage-like cells; type: cell-based, mouse; settings: for suppression of LPS-induced NO production in RAW 264.7 cells (in words) / IC50: LPS (1 μg/mL), 24 hrs; for IC50: read-out: IC50, accumulation of NO2− in culture media, RAW 264.7 cells; for % of inhibition of NO2− accumulation at the highest concentration, RAW 264.7 cells: LPS, at the highest concentration (bound given in the source)
Procedure: RAW 264.7 mouse macrophage-like cell line (American Type Culture Collection (ATCC), PO Box 1549, Manassas, Va. 20108 USA) was plated in 96 well tissue-culture plates in Dulbecco's Modified Eagle Medium (DMEM) supplemented with 10% fetal calf serum (FCS), 100 units/ml of penicillin and streptomycin at 2×10^5 cells/200 μL per well. Cells were allowed to adhere overnight. The cells were treated with DMSO or a tested compound at 37° C. for 1 hr. followed by stimulation with 1 μg/mL of LPS (Escherichia coli, serotype 0111:B4) for 24 hrs. Thereafter, the medium in each well was collected and stored at −70° C. until use. The final volume of DMSO in the reaction mixture was≦0.5%.
as §1

[6] = system: rat peritoneal mast cells; assay: Mast cell degranulation stimulated with compound 48/80 (release of β-glucuronidase and histamine); type: cell-based; settings: for IC50: Mast cell, compound 48/80 (10 μg/mL); for % of inhibition of Histamine release at the highest concentration / % of inhibition of β-Glucuronidase release at the highest concentration: compound 48/80, at the highest concentration (bound given in the source)
Procedure: Heparinized Tyrode's solution was injected into the peritoneal cavity of exsanguinated rat (Sprague-Dawley, 250-300 g, 10-12 weeks old). […] Cell pellets were washed and suspended in Tyrode's solution with 0.1% BSA to 1×10^6 cells/mL. Cell suspension was then preincubated at 37° C. with DMSO or a tested compound for 5 min. The final volume of DMSO in the reaction mixture was≦0.5%. […] After treatment of the cell suspension with Triton X-100, the total content of β-glucuronidase and histamine was measured, and the percentage release was calculated. In the experiment, Mepacrine was used as a positive control.

[7] = read-out: IC50, release of Lysozyme
[8] = read-out: IC50, release of β-Glucuronidase
[9] = PMA (3 nM), read-out: IC50, superoxide anion generation, PMA
[10] = fMLP (0.3 μM)/CB (5 μg/mL), read-out: IC50, superoxide anion generation, fMLP/CB
[11] = read-out: IG50, release of Histamine
[12] = read-out: IG50, release of β-Glucuronidase

IC50 ([2]; Mus musculus, N9) | IC50 [3, 7] | IC50 [3, 8] | IC50 [4, 9] | IC50 [4, 10] | IC50 ([5]; Mus musculus, RAW264.7) | melting point | IC50 [6, 11] | IC50 [6, 12] | Compound | inhibition ([4]; PMA (3 nM)) | % of inhibition of Histamine release at the highest concentration [6] | % of inhibition of β-Glucuronidase release at the highest concentration [6] | % of inhibition of NO2− accumulation at the highest concentration, N9 cells [2] | % of inhibition of NO2− accumulation at the highest concentration, RAW 264.7 cells [5] | other results
 |  |  |  |  |  |  |  |  | CC(C)=CCc1cc(C(=O)/C=C/c2ccc(O)c(O)c2)c(O)cc1O [Brousschalcone A] |  |  |  |  |  | % inhibition of release of lysozyme [1]: 68.0±13.4%; % inhibition of release of β-glucuronidase [1]: 51.1±12.6%
17.8 ± 0.2 µM | 28.3 ± 1.9 µM | 20.6 ± 2 µM | > 30 µM | 19.5 ± 3.5 µM | 14.6 ± 0.1 µM | 127 to 128 °C | > 30 µM | > 30 µM | COc1ccc(OC)c(C(=O)/C=C/c2ccc(O)cc2)c1 [Compound 1, 2′,5′-Dimethoxy-4-hydroxychalcone] | 36.3% | 10.0 ± 5.1% | 8.3 ± 2.3% |  |  | suppression of LPS-induced NO production in RAW 264.7 cells (in words) [5]: suppressed
> 10 µM | 5.7 ± 0.3 µM | 5.6 ± 0.3 µM | > 30 µM | 8 ± 2.4 µM | > 10 µM | 85 to 87 °C | > 30 µM | > 30 µM | COc1ccc(OC)c(C(=O)/C=C/c2ccc(Br)cc2)c1 [Compound 2, 4-Bromo-2′,5′-dimethoxychalcone] | 22.9% | 21.7 ± 1.5% | 28.6 ± 3.4% | −5.6 ± 1.1% | 8.9 ± 4.0% | 
> 3 µM | 5.1 ± 0.1 µM | 5 ± 0.3 µM | > 30 µM | 12.9 ± 0.4 µM | > 3 µM | 121 to 123 °C | > 30 µM | > 30 µM | COc1ccc(OC)c(C(=O)/C=C/c2ccc(Cl)c(Cl)c2)c1 [Compound 3, 3,4Dichloro-2′,5′-dimethoxychalcone] | -27.1% | 35.2 ± 1.0% | 44.3 ± 2.3% | 4.3 ± 3.1% | 2.0 ± 3.1% | 
> 1 µM |  |  | > 10 µM | 0.6 ± 0.2 µM | > 1 µM | 171 to 174 °C |  |  | O=C(/C=C/c1ccc(Cl)c(Cl)c1)c1cc(O)ccc1O [Compound 4, 3,4-Dichloro-2′,5′-dihydroxychalcone] | 21.9% |  |  | −10.3 ± 1.5% | −4.9 ± 1.9% | inhibitory effect on fMLP/CB-induced superoxide anion generation (in words) [4]: more potent than the positive control, trifluoperazine
3.7 ± 0.1 µM | > 30 µM | > 30 µM | > 30 µM | > 30 µM | 4.9 ± 0.3 µM | 152 to 153 °C | > 30 µM | > 30 µM | CCOc1ccc(OCC)c(C(=O)/C=C/c2ccc(Cl)c(Cl)c2)c1 [Compound 5, 3,4-Dichloro-2′,5′-diethoxychalcone] | 13.2% | 12.9 ± 7.9% | 5.5 ± 4.7% |  |  | inhibitory effect on neutrophil degranulation (in words) ([3]; fMLP/CB): no significant inhibitory effects; % of inhibition of Lysozyme release at the highest concentration ([3]; fMLP/CB): 27.1 ± 5.0%; % of inhibition of β-Glucuronidase release at the highest concentration ([3]; fMLP/CB): 30.6 ± 4.1%; inhibitory effect on fMLP/CB-induced superoxide anion generation (in words) [4]: not to have significant inhibitory effects; % of inhibition of superoxide anion generation at the highest concentration, fMLP/CB [4]: 32.4 ± 12.2%; suppression of LPS-induced NO production in RAW 264.7 cells (in words) [5]: suppressed
> 30 µM | 6.6 ± 0.4 µM | 6.2 ± 0.3 µM | > 30 µM | 17.7 ± 7.2 µM | > 10 µM | 97 to 99 °C | > 30 µM | > 30 µM | CCCOc1ccc(O)c(C(=O)/C=C/c2ccc(Cl)c(Cl)c2)c1 [Compound 6, 3,4-Dichloro-2′-hydroxy-5′-propoxy-chalcone] | 49.9% | 47.6 ± 2.4% | 49.2 ± 2.0% | 26.4 ± 2.3% | 7.5 ± 0.4% | 
> 3 µM |  |  | > 1 µM | > 1 µM | > 3 µM | 156 to 157 °C |  |  | O=C(/C=C/c1ccsc1)c1cc(O)ccc1O [Compound 7, 2′,5′-Dihydroxy-3-thienylchalcone] | 23.5% |  |  | 10.6 ± 8.2% | 9.7 ± 2.9% | % of inhibition of superoxide anion generation at the highest concentration, fMLP/CB [4]: 43.4 ± 6.1%
> 30 µM | > 30 µM | > 30 µM | > 30 µM | 24.3 ± 3.2 µM | > 30 µM | 95 to 97 °C | > 30 µM | > 30 µM | O=C(/C=C/c1cccs1)c1cccs1 [Compound 8, 2′,2-Dithienylchalcone] | 35.6% | 20.9 ± 1.2% | 17.3 ± 2.6% | 15.2 ± 0.5% | 12.5 ± 2.2% | % of inhibition of Lysozyme release at the highest concentration ([3]; fMLP/CB): 30.0 ± 1.4%; % of inhibition of β-Glucuronidase release at the highest concentration ([3]; fMLP/CB): 46.6 ± 0.7%
 |  |  |  |  |  |  |  |  | COC(=O)[C@@H](N)CCCNC(=N)N[N+](=O)[O-] [L-NAME, N^ω-nitro-L-arginine methyl ether, reference compound] |  |  |  |  |  | IC50 ([2]; positive control): 630 ± 10 µM; IC50 ([5]; positive control): 510 ± 20 µM
 |  |  |  |  |  |  | 48.5 ± 3.8 µM | 32.2 ± 3.6 µM | CCN(CC)CCCC(C)Nc1c2ccc(Cl)cc2nc2ccc(OC)cc12 (stereo not drawn) [Mepacrine, reference compound] |  |  |  |  |  | 
 | 18.3 ± 0.9 µM | 18.9 ± 2.1 µM | 9.7 ± 1.1 µM | 12.9 ± 1 µM |  |  |  |  | CN1CCN(CCCN2c3ccccc3Sc3ccc(C(F)(F)F)cc32)CC1 [Trifluoperazine, reference compound] |  |  |  |  |  | 
